Tests used:
Human plasma kallikrein = Human plasma kallikrein (Homo sapiens (Human), UniProt P03952); experiment: Determination of the IC50 for plasma kallikrein; type: biochemical; details: 25° C., fluorogenic substrate H-DPro-Phe-Arg-AFC; read-out: IC50 (human PKaI)
Protocol: Determination of the IC50 for Plasma Kallikrein
(§1) Human plasma kallikrein (Protogen) was incubated at 25° C. with the fluorogenic substrate H-DPro-Phe-Arg-AFC and various concentrations of the test compound. Residual enzyme activity (initial rate of reaction) was determined by measuring the change in […] at 410 nm and the IC50 value for the test compound was determined.

Human FXIa = Human FXIa (Homo sapiens (Human), UniProt P03951); experiment: Determination of the % inhibition for FXIa; type: biochemical; details: 40 μM test compound, 25° C., substrate Z-Gly-Pro-Arg-AFC
Protocol: Determination of the % Inhibition for FXIa
Human FXIa (Enzyme Research Laboratories) was incubated at 25° C. with the fluorogenic substrate Z-Gly-Pro-Arg-AFC and 40 μM of the test compound. Residual enzyme activity (initial rate of reaction) was determined by measuring the change in […].

Human KLK1 = Human KLK1 (Homo sapiens (Human), UniProt P06870); experiment: Determination of the IC50 for KLK1; type: biochemical; details: 25° C., fluorogenic substrate H-DVal-Leu-Arg-AFC
Protocol: Determination of the IC50 for KLK1
as §1, with “KLK1 (Callbiochem)” for “plasma kallikrein (Protogen)”, “H-DVal-Leu-Arg-AFC” for “H-DPro-Phe-Arg-AFC”

[1] = Pharmacokinetics following a single oral dose in rats; type: in vivo; details: rat, nominal 10 mg/kg, male Sprague-Dawley rats, plasma
Protocol: Pharmacokinetic studies of the compounds in Table 15 were performed to assess the pharmacokinetics following a single oral dose in male Sprague-Dawley rats. Two rats were given a single po dose of 5 mL/kg of a nominal 2 mg/mL (10 mg/kg) composition of test compound in vehicle. Following dosing, blood samples were collected over a period of 24 hours. Sample times were 5, 15 and 30 minutes then 1, 2, 4, 6, 8 and 12 hours. Following collection, blood samples were centrifuged and the plasma fraction analysed for concentration of test compound by LCMS.

diabetic rats = details: cited from earlier work
[2] = in vivo; cited from earlier work

Sequence of Human plasma kallikrein (P03952 391-638): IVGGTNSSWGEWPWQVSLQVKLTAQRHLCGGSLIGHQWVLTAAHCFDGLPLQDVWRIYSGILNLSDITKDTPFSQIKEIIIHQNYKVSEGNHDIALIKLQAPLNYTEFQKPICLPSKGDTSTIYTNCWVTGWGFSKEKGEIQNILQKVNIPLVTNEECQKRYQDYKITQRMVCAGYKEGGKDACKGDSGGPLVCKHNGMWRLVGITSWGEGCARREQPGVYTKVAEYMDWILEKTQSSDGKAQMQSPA
Sequence of Human plasma kallikrein (P03952 20-390 partner): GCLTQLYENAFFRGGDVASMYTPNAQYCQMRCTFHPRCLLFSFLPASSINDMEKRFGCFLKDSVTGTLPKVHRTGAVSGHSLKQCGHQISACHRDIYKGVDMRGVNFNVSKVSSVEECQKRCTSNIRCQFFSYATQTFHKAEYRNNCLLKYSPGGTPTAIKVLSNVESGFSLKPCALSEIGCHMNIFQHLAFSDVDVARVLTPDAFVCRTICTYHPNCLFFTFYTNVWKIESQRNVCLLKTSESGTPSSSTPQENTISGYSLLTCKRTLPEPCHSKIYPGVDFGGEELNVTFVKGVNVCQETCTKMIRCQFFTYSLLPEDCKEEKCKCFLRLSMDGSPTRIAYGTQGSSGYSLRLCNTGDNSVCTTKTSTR
Sequence of Human FXIa (P03951 388-625): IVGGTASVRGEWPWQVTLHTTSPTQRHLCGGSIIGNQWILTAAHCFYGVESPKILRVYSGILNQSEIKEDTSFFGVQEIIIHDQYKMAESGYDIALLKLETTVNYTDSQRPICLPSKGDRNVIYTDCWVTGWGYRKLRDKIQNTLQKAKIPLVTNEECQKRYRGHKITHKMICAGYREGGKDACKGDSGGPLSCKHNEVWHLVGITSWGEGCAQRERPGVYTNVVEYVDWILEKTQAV
Sequence of Human FXIa (P03951 19-387 partner): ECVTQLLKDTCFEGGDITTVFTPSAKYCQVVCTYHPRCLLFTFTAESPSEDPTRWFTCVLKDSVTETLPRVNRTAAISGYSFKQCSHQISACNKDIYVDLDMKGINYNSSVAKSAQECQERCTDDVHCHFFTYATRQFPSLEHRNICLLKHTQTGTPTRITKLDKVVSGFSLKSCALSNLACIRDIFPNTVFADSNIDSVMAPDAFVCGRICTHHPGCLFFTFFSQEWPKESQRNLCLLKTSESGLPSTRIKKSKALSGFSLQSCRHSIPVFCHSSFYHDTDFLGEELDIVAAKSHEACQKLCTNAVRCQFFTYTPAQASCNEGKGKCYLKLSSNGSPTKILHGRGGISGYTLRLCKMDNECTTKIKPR
Sequence of Human KLK1 (P06870 25-262): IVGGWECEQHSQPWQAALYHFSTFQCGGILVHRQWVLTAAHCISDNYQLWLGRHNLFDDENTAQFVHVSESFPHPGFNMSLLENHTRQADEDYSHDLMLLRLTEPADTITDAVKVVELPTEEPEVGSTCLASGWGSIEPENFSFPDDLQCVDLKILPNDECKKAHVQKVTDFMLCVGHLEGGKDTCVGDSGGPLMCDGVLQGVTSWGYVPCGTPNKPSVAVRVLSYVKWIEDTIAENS

Row | Structure (SMILES) | IC50 (Human plasma kallikrein) | inhibition at 40 µM (Human FXIa) | IC50 (Human KLK1) | Cmax [1] | Tmax [1] | effect on retinal vascular permeability and retinal blood flow abnormalities (diabetic rats) | oral availability [2]
1 | COCc1nn(Cc2ccc(Cn3ccccc3=O)cc2)cc1C(=O)NCc1c(C#N)ccc(OC)c1F [Example 77, N-[(6-cyano-2-fluoro-3-methoxyphenyl)methyl]-3-(methoxymethyl)-1-({4-[(2-oxopyridin-1-yl)methyl]phenyl}methyl)pyrazole-4-carboxamide] | 0.6 nM | 28% | – | 397 ng/mL | 30 min | – | –
2 | N=C(N)c1ccc(CNC(=O)c2cnn(Cc3ccccc3)c2)cc1 [ASP-440] | – | – | – | – | – | ameliorated both retinal vascular permeability and retinal blood flow abnormalities | poor oral availability
3 | O=C(NCc1c(F)cccc1C(F)(F)F)c1cn(Cc2ccc(Cn3ccccc3=O)cc2)nc1C(F)(F)F [Example 51, N-{[2-fluoro-6-(trifluoromethyl)phenyl]methyl}-1-({4-[(2-oxopyridin-1-yl)methyl]phenyl}methyl)-3-(trifluoromethyl)pyrazole-4-carboxamide] | 48.9 nM | – | > 40000 nM | 101 ng/mL | 15 min | – | –
4 | COCc1nn(Cc2ccc(Cn3ccccc3=O)cc2)cc1C(=O)NCc1nccc(OC)c1F [Example 41, N-[(3-fluoro-4-methoxypyridin-2-yl)methyl]-3-(methoxymethyl)-1-({4-[(2-oxopyridin-1-yl)methyl]phenyl}methyl)pyrazole-4-carboxamide] | – | 0% | > 40000 nM | 1530 ng/mL | 180 min | – | –
5 | COCc1nn(Cc2ccc(Cn3ccccc3=O)cc2)cc1C(=O)NCc1c(F)ccc(OC)c1F [Example 66, N-[(2,6-difluoro-3-methoxyphenyl)methyl]-3-(methoxymethyl)-1-({4-[(2-oxopyridin-1-yl)methyl]phenyl}methyl)pyrazole-4-carboxamide] | 4.6 nM | 4% | > 10000 nM | 2890 ng/mL | 60 min | – | –
6 | COCc1nn(Cc2ccc(Cn3ccccc3=O)cc2)cc1C(=O)NCc1ccccc1F [Example 62, N-[(2-fluorophenyl)methyl]-3-(methoxymethyl)-1-({4-[(2-oxopyridin-1-yl)methyl]phenyl}methyl)pyrazole-4-carboxamide] | 572 nM | 0% | > 10000 nM | – | – | – | –
7 | COCc1nn(Cc2ccc(Cn3ccccc3=O)cc2)cc1C(=O)NCc1c(F)cccc1OC(F)F [Example 92, N-{[2-(difluoromethoxy)-6-fluorophenyl]methyl}-3-(methoxymethyl)-1-({4-[(2-oxopyridin-1-yl)methyl]phenyl}methyl)pyrazole-4-carboxamide] | 16 nM | 4% | > 10000 nM | – | – | – | –
8 | COCc1nn(Cc2ccc(Cn3ccccc3=O)cc2)cc1C(=O)NCc1cccc(OC)c1F [Example 53, N-[(2-fluoro-3-methoxyphenyl)methyl]-3-(methoxymethyl)-1-({4-[(2-oxopyridin-1-yl)methyl]phenyl}methyl)pyrazole-4-carboxamide] | 20.2 nM | – | > 10000 nM | 1030 ng/mL | 15 min | – | –
9 | COc1cccc(CNC(=O)c2cn(Cc3ccc(Cn4ccccc4=O)cc3)nc2N(C)C)c1F [Example 59, 3-(dimethylamino)-N-[(2-fluoro-3-methoxyphenyl)methyl]-1-({4-[(2-oxopyridin-1-yl)methyl]phenyl}methyl)pyrazole-4-carboxamide] | 73.4 nM | 0% | > 10000 nM | – | – | – | –
10 | COc1cccc(CNC(=O)c2cn(Cc3ccc(Cn4ccccc4=O)cc3)nc2NC(C)=O)c1F [Example 71, 3-acetamido-N-[(2-fluoro-3-methoxyphenyl)methyl]-1-({4-[(2-oxopyridin-1-yl)methyl]phenyl}methyl)pyrazole-4-carboxamide] | 300 nM | 0% | > 10000 nM | – | – | – | –

More lines, main results first:

Row | IC50 (Human plasma kallikrein) | inhibition at 40 µM (Human FXIa) | IC50 (Human KLK1) | Structure (SMILES) | Cmax [1] | Tmax [1] | effect on retinal vascular permeability and retinal blood flow abnormalities (diabetic rats) | oral availability [2]
11 | 8.7 nM | 8% | > 10000 nM | COc1cccc(CNC(=O)c2cn(Cc3ccc(Cn4ccccc4=O)cc3)nc2N)c1F [Example 2, 3-Amino-1-[4-(2-oxo-2H-pyridin-1-ylmethyl)-benzyl]-1H-pyrazole-4-carboxylic acid 2-fluoro-3-methoxy-benzylamide] | 351 ng/mL | 60 min | – | –
12 | 153 nM | 0% | > 10000 nM | COCc1nn(Cc2ccc(Cn3ccccc3=O)cc2)cc1C(=O)NCc1c(C)cccc1F [Example 97, N-[(2-fluoro-6-methylphenyl)methyl]-3-(methoxymethyl)-1-({4-[(2-oxopyridin-1-yl)methyl]phenyl}methyl)pyrazole-4-carboxamide] | – | – | – | –
13 | 612 nM | 0% | > 10000 nM | COCc1nn(Cc2ccc(Cn3ccccc3=O)cc2)cc1C(=O)NCc1cccc(OC)c1C(F)(F)F [Example 78, N-{[3-methoxy-2-(trifluoromethyl)phenyl]methyl}-3-(methoxymethyl)-1-({4-[(2-oxopyridin-1-yl)methyl]phenyl}methyl)pyrazole-4-carboxamide] | – | – | – | –
14 | 174 nM | 0% | > 40000 nM | Nc1nn(Cc2ccc(Cn3ccccc3=O)cc2)cc1C(=O)NCc1cccc(O)c1F [Example 130, 3-amino-N-[(2-fluoro-3-hydroxyphenyl)methyl]-1-({4-[(2-oxopyridin-1-yl)methyl]phenyl}methyl)pyrazole-4-carboxamide] | – | – | – | –
15 | 2.3 nM | 1% | > 40000 nM | COCc1nn(Cc2ccc(Cn3ccccc3=O)cc2)cc1C(=O)NCc1cc(OC)ccc1C(F)F [Example 81, N-{[2-(difluoromethyl)-5-methoxyphenyl]methyl}-3-(methoxymethyl)-1-({4-[(2-oxopyridin-1-yl)methyl]phenyl}methyl)pyrazole-4-carboxamide] | – | – | – | –
16 | 2.1 nM | 17% | > 40000 nM | COCc1nn(Cc2ccc(Cn3ccccc3=O)cc2)cc1C(=O)NCc1c(OC)ccc(OC)c1F [Example 54, N-[(2-fluoro-3,6-dimethoxyphenyl)methyl]-3-(methoxymethyl)-1-({4-[(2-oxopyridin-1-yl)methyl]phenyl}methyl)pyrazole-4-carboxamide] | – | – | – | –
17 | 79.2 nM | 46% | > 40000 nM | COCc1nn(Cc2ccc(Cn3ccccc3=O)cc2)cc1C(=O)NCc1c(F)cccc1C(N)=O [Example 85, N-[(2-carbamoyl-6-fluorophenyl)methyl]-3-(methoxymethyl)-1-({4-[(2-oxopyridin-1-yl)methyl]phenyl}methyl)pyrazole-4-carboxamide] | – | – | – | –
18 | 342 nM | 0% | > 10000 nM | COCc1nn(Cc2ccc(Cn3ccccc3=O)cc2)cc1C(=O)NCc1ccccc1C(F)(F)F [Example 63, 3-(methoxymethyl)-1-({4-[(2-oxopyridin-1-yl)methyl]phenyl}methyl)-N-{[2-(trifluoromethyl)phenyl]methyl}pyrazole-4-carboxamide] | – | – | – | –
19 | 43.3 nM | 0% | > 10000 nM | COCc1nn(Cc2ccc(Cn3ccccc3=O)cc2)cc1C(=O)NCc1ccc(C)cc1F [Example 65, N-[(2-fluoro-4-methylphenyl)methyl]-3-(methoxymethyl)-1-({4-[(2-oxopyridin-1-yl)methyl]phenyl}methyl)pyrazole-4-carboxamide] | – | – | – | –
